Source: patent US20100004250A1, “PTERIDINE DERIVATIVES AS POLO-LIKE KINASE INHIBITORS USEFUL IN THE TREATMENT OF CANCER” (CHROMA THERAPEUTICS LTD., priority 2006, published 2010)

Assays:
HCT 116 cell line = experiment: Cell inhibition assay (WST-1 proliferation); type: cell-based; conditions: Homo sapiens, 120 hrs incubation, read-out: Inhibitor Activity vs HCT 116 cell line
Protocol: Cells were seeded in 96W tissue culture plates (1 well=30 mm^2) at a density of 500 cells per well in 50 μl of the appropriate culture medium (see below). 24 hrs later 50 μl of the compound prepared in the same medium was added as 4 fold dilutions to give final concentrations in the range 0.15 nM-2500 nM (n=6 for each concentration). The plates were then incubated at 37° C., 5% CO2 for 120 hrs. Cell proliferation was assessed using WST-1 (a metabolic indicator dye, Roche Cat no. 1 644 807) according to the manufacturers instructions. The results were calculated as percentage of vehicle response and IC50 values represent the concentration of compound that inhibited the vehicle response by 50%.
HCT-116 Culture Medium—Dulbeccos MEM (Sigma D6546) plus 10% heat inactivated fetal calf serum (Hyclone SH30071 Thermo Fischer Scientific) containing 2 mM Glutamine (Sigma cat no G-7513) and 50 U/ml Penicillin and Streptomycin Sulphate (Sigma Cat no P-0781).

PLK1 = target: T1, PLK1 (Homo sapiens, UniProt P53350); experiment: PLK1 enzyme assay (Z'-LYTE, Invitrogen); type: biochemical; conditions: ATP at or close to Km, 60 minute kinase reaction; read-out: Inhibitor Activity vs PLK1
T1 construct: purchased Invitrogen (Paisley, UK), assay service
T1 sequence (P53350 whole entry): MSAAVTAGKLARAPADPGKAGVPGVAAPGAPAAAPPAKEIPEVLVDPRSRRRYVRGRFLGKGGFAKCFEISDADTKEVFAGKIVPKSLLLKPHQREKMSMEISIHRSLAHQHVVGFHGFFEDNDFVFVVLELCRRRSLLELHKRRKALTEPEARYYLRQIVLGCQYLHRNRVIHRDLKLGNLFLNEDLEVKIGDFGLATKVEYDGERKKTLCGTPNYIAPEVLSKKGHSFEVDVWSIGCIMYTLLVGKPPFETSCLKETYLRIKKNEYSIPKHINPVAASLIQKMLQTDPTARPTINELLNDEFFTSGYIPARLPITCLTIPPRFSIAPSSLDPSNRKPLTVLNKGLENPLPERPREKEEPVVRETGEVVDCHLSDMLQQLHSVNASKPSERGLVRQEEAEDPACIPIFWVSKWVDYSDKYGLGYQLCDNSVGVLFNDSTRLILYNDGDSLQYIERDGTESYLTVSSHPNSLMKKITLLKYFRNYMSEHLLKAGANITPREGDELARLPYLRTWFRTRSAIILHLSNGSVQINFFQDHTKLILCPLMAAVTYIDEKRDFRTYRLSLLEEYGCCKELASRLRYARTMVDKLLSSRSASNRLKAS
Protocol: The ability of compounds to inhibit PLK-1 kinase activity was measured in an assay performed by Invitrogen (Paisley, UK). The Z′-LYTE™ biochemical assay employs a fluorescence-based, coupled-enzyme format and is based on the differential sensitivity of phosphorylated and non-phosphorylated peptides to proteolytic cleavage. The peptide substrate is labelled with two fluorophores—one at each end—that make up a FRET pair. In the primary reaction, the kinase transfers the gamma-phosphate of ATP to a single serine or threonine residue in a synthetic FRET-peptide. In the secondary reaction, a site-specific protease recognizes and cleaves non-phosphorylated FRET-peptides. Phosphorylation of FRET-peptides suppresses cleavage by the Development Reagent. Cleavage disrupts FRET between the donor (i.e., coumarin) and acceptor (i.e., fluorescein) fluorophores on the FRET-peptide, whereas uncleaved, phosphorylated FRET-peptides maintain FRET. A […] method, which calculates the ratio (the Emission Ratio) of donor emission to acceptor emission after excitation of the donor fluorophore at 400 nm, is used to quantitate reaction progress.
The final 10 μl Kinase Reaction consists of 2.8-25.3 ng PLK1, 2 μM Ser/Thr 16 Peptide substrate and ATP in 50 mM HEPES pH 7.5, 0.01% BRIJ-35, 10 mM MgCl2, 1 mM EGTA. The assay is performed at an ATP concentration at, or close to, the Km. After the 60 minute Kinase Reaction incubation at room temperature, 5 μl of a 1:8 dilution of Development Reagent is added. The assay plate is incubated for a further 60 minutes at room temperature and read on a fluorescence plate reader.
Duplicate data points are generated from a ⅓ log dilution series of a stock solution of test compound in DMSO. Nine dilutions steps are made from a top concentration of 10 μM, and a “no compound” blank is included. Data is collected and analysed using XLfit software from IDBS. The dose response curve is curve fitted to model number 205 (sigmoidal dose-response model). From the curve generated, the concentration giving 50% inhibition is determined and reported.

Row | IC50 (HCT 116 cell line) [nM] | IC50 (PLK1) [nM] | SMILES
1 | > 500 | 100 to 500 | CC[C@@H]1C(=O)N(C)c2cnc(Nc3ccc(/C=C/CCCC(=O)N[C@@H](CC(C)C)C(=O)OC4CCCC4)cc3F)nc2N1C1CCCC1 [Example 14, Cyclopentyl N-[(5E)-6-(4-{[(7R)-8-cyclopentyl-7-ethyl-5-methyl-6-oxo-5,6,7,8-tetrahydropteridin-2-yl]amino}-3-fluorophenyl)hex-5-enoyl]-L-leucinate]
2 | < 100 | < 100 | CC[C@@H]1C(=O)N(C)c2cnc(Nc3ccc(C(=O)N[C@H]4CC[C@@H](CCC(=O)N[C@@H](CC(C)C)C(=O)OC5CCCC5)CC4)cc3OC)nc2N1C1CCCC1 [Example 17, Cyclopentyl N-(3-{cis-4-[(4-{[(7R)-8-cyclopentyl-7-ethyl-5-methyl-6-oxo-5,6,7,8-tetrahydropteridin-2-yl]amino}-3-methoxybenzoyl)amino]cyclohexyl}propanoyl)-L-leucinate]

Further lines, the compound ahead of its results:

Row | SMILES | IC50 (HCT 116 cell line) [nM] | IC50 (PLK1) [nM]
3 | CC[C@@H]1C(=O)N(C)c2cnc(Nc3ccc(C(=O)NCCCC(=O)N[C@@H](CC(C)C)C(=O)OC4CCCC4)cc3OC)nc2N1C1CCCC1 [Example 13, Cyclopentyl N-{4-[(4-{[(7R)-8-cyclopentyl-7-ethyl-5-methyl-6-oxo-5,6,7,8-tetrahydropteridin-2-yl]amino}-3-methoxybenzoyl)amino]butanoyl}-L-leucinate] | 100 to 500 | 100 to 500
4 | CC[C@@H]1C(=O)N(C)c2cnc(Nc3ccc(CCCCCC(=O)N[C@@H](CC(C)C)C(=O)OC4CCCC4)cc3F)nc2N1C1CCCC1 [Example 15, Cyclopentyl N-[6-(4-{[(7R)-8-cyclopentyl-7-ethyl-5-methyl-6-oxo-5,6,7,8-tetrahydropteridin-2-yl]amino}-3-fluorophenyl)hexanoyl]-L-leucinate] | > 500 | > 500
5 | CC[C@@H]1C(=O)N(C)c2cnc(Nc3c(F)cc(/C=C/CCCC(=O)N[C@@H](CC(C)C)C(=O)OC4CCCC4)cc3F)nc2N1C1CCCC1 [Example 16, Cyclopentyl N-[(5E)-6-(4-{[(7R)-8-cyclopentyl-7-ethyl-5-methyl-6-oxo-5,6,7,8-tetrahydropteridin-2-yl]amino}-3,5-difluorophenyl)hex-5-enoyl]-L-leucinate] | > 500 | 100 to 500
